Measurements taken from patent US20250197388A1, “COMPOUNDS, PHARMACEUTICAL COMPOSITIONS AND METHODS FOR TREATING INFLAMMATORY BOWEL DISEASE” (FLAGSHIP PIONEERING INNOVATIONS VI, LLC, priority 2022, published 2025).

How the values were obtained:
Dectin-1b = target: T1, Dectin-1b (Homo sapiens, UniProt Q9BXN2); test: Dectin-1 assay, HEK-Blue Dectin-1b SEAP reporter cells stimulated with beta-glucan peptide (BGP); assay type: cell-based; conditions: HEK-Blue Dectin-1b cells; compounds at 1, 10 or 30 μM for 6 hours, then BGP 30 μg/mL 16-18 hours; SEAP adjusted by cell viability
T1 construct: host or cells: HEK-Blue Dectin-1b reporter cells (HEK293-derived)
T1 sequence (Q9BXN2 1-201 isoform Q9BXN2-2): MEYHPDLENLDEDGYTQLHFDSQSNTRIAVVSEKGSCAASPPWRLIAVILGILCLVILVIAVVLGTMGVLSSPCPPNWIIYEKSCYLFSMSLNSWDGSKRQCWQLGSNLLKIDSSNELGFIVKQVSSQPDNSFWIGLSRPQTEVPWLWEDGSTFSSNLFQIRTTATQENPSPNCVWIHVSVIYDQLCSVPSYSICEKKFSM
Procedure: Compounds described herein are added to mammalian cells for bioactivity assessment. The HEK-Blue Dectin-1b cells line (InVivoGen) releases a reporter protein (secreted embryonic alkaline phosphatase, SEAP) to the culture supernatant in response to Dectin-1 activation. HEK-Blue reporter cells were grown in DMEM culture media with 10% decomplemented fetal calf serum (InvivoGen, 1% Pen/Strep antibiotic (InvivoGen), 0.2% Normocin antibiotic (InvivoGen). On the day prior to the assay, cells were seeded in a 96 flat-bottom well plate at 50,000 cells/well and further incubated for 20 hours. On the day of the assay cells were incubated with 1 μM, 10 μM or 30 μM of the compounds described herein or with 1 μM of the SYKi IV Dectin-1b Inhibitor (Millipore) or with DMSO (vehicle control) for 6 hours, followed by the addition of beta-glucan peptide (BGP, a Dectin-1 ligand at 30 μg/mL) and incubation for 16-18 hours. After incubation was concluded, the cultures supernatants were collected and Dectin-1 related activity was assessed by measurement of the SEAP-reporter protein presence, using Quanti-Blue assay (Invivogen) and these values were adjusted by the Cell Viability levels that was assessed using the Cell-Titer-Glo2 Reagent (Promega).
Results represent cell number adjusted SEAP levels in a triplicate setting for each condition and cell numbers and viability corrections reflected less than 5% corrections. See, e.g., FIG. 1 for compound A-3.

[1] = system: Zymosan-induced production of IL-12p40 in monocyte-derived dendritic cells; test: Monocyte derived DC (MoDC) assay, Zymosan-induced IL-12p40 (Luminex/ELISA); assay type: cell-based, human
Description: Monocyte derived DC (MoDC) were differentiated from healthy human donor derived CD14+ monocytes. Commercially available freshly prepared Leukopaks were obtained from healthy blood donor and kept refrigerated on ice before spin centrifuged and the pelleted cells are rinsed and resuspended with MACS buffer (Miltenyi Biotec). Next, CD14+ monocytes were purified using MultiMACS™ Cell24 Separator-Plus instrumentation and reagents according to the manufacturer (Miltenyi Biotec) instructions. The resulting purified CD14^+ cell fraction was washed, enumerated, and subsequently cryopreserved for later use. At the experiment first day cryopreserved CD14′ cells were thawed, rinsed with culture media, and then resuspended in culture media principally composed of RPMI (Invitrogen) supplemented with 10% v/v heat inactivated FBS. For generation of MoDC, these CD14^+ cells were enumerated and seeded into 75 cm^2 tissue culture flasks in 30 mL of culture media supplemented with GM-CSF (40-100 ng/mL) and IL-4 (25 ng/mL). Every other day, half of the culture media was replaced with fresh media (containing the same cytokine supplementation) and after 6-7 days of culture, fully differentiated and matured MoDC were obtained as confirmed by conventional Immuno-phenotype markers (levels of expression or absence of surface CD80, CD83, CD86, CD209, HLA-DR, CD14 & CD64) that were verified by flow-cytometry. Fully differentiated (mature) MoDCs, were seeded into 96 flat-well plates and incubated with a various concentration of the compound described herein, or with control solution (DMSO), or with the pharmacologic inhibitors Cyclosporin-A (CsA) and BAY 61-3606 (which is a known inhibitor of Syk kinase) for 6 hours. Next, the MoDC culture well were added with Dectin-1(CLEC7a1)-ligand (Zymosan at 5 μg/mL), or the Toll-like receptor agonist R848, and further incubated for 18-20 hours. After incubation concluded, culture supernatants were collected, and the levels of inflammatory cytokines and chemokines was measured in a triplicate setting for each condition by Luminex® multiplex assay (FIG. 2) or by ELISA (FIG. 3).

[2] = Compound interconversion monitored by 1H-NMR in neutral aqueous buffer; assay type: physicochemical; conditions: 37° C. in the neutral aqueous buffer
Procedure: This examples provide the kinetics of compounds A-2 and A-3. More specifically, A-6 is a mixture of compounds A-2 and A-3 and interconvert in solutions.
In this example, A-6 was combined with […] of Na3PO4, DCl, and D2O at a pH of 7-7.5. This solution was then monitored using 1H-NMR at 37° C.
Interconversion between compounds A-2 and A-3 was seen and monitored for 5 days. See, Table 1.

In the case of `CN1[C@@H](C(=O)O)CS[C@H]1[C@@H]1CSC(c2ccccc2O)=N1` (single isomer, unassigned) [Compound A-3], the Activity (Dectin-1b) is reported as less than 30 µM, the “inhibition of Zymosan-induced production of IL-12p40” value ([1]; MoDC from healthy human donors 1, 2 and 3, 15.5 nM to 1 μM (FIGS. 6A-6C)) is reported as “inhibition” and the “concentration of maximal inhibition of Zymosan-induced IL-12p40” value ([1]; donors 1, 2 and 3, the highest concentration tested) is reported as 1 µM. For the same compound, the “inhibition of zymosan-induced IL-12p40” value ([1]; primary human MoDC from healthy donors 5 and 6, 0.5 μM final concentration (FIGS. 11A, 11B)) was “does not achieve statistically significant inhibition”, the “equilibrium ratio of interconversion” value [2] was “about 1.5/1” and the “time to nearly reach interconversion equilibrium” value [2] was “about 7 hours”.
